{"source": "patent US20240277841A2", "about": "“HUMAN CHIMERIC ANTIGEN RECEPTOR NEUTROPHILS, COMPOSITIONS, KITS AND METHODS OF USE” (Purdue Research Foundation, priority 2020, published 2024)", "key": {"U87MG cells": {"system": "U87MG cells", "assay": "Neutrophil infiltration of 3D tumor spheroids", "type": "cell-based, human", "settings": "pre-treating neutrophils", "description": "A 3-D biomimetic GBM model was constructed to mimic an in vivo tumor niche-like microenvironment with a dense, extracellular matrix and heterogeneous tumor cell subtypes.\nNeutrophil infiltration of 3D tumor spheroids. The 3D tumor spheroids were obtained using the hanging drop method. Briefly, U87MG cells were suspended in MEM medium with 10% FBS and 0.3% methylcellulose at 2×10^6 cells/mL and deposited onto an inverted lid of 96-well plate as an individual drop using a 20 μL pipettor. The cover lid was then placed back onto the PBS-filled bottom chamber and incubated at 37° C. and 5% CO2. The hanging drops were monitored daily until cell aggregates were formed in ˜5-7 days. Each cell aggregate was transferred to a single well of a 24-well plate for the substream analysis. To assess the tumor penetration capability of CLTX T-CAR neutrophils, 2×10^5 neutrophils/well were added to the wells of 24-well plate and incubated with the tumor spheroids. After co-incubation for 24 hours, the tumor spheroids were fixed and stained for CD45 and DAPI. For the cytotoxicity analysis, the mixture of neutrophils and tumor spheroids were stained with 1 μM Calcein-AM and 1 μM propidium iodide (PI). The stained cells were then imaged using a Leica DMi-8 fluorescent microscope."}, "tumor cells": {"system": "tumor cells", "assay": "Phagocytosis of tumor cells by neutrophils with inhibitor", "type": "cell-based", "settings": "5 μM"}, "glioblastoma": {"system": "glioblastoma", "assay": "Tumor lysis by CAR neutrophils with inhibitors", "type": "cell-based", "settings": "for glioblastoma viability: co-incubation with CAR neutrophils"}, "[1]": {"system": "neutrophil extracellular trap (NET) formation", "settings": "3 μg/ml or more"}, "TGFβ": {"system": "TGFβ", "assay": "hPSC differentiation: endothelial-to-hematopoietic transition", "type": "cell-based, human", "settings": "10 μM from day 4", "description": "H9 was obtained from WiCell and maintained on Matrigel- or iMatrix 511-coated plates in mTeSR plus medium according to a previously published method. For differentiation, hPSCs were dissociated with 1 mM EDTA and seeded onto iMatrix 511-coated, 24-well plates at a cell density between 10,000 and 80,000 cells/cm^2 in mTeSR plus medium with 5 μM Y27632 for 24 hours (day −1). At day 0, cells were treated with 6 μM CHIR99021 (CHIR) in DMEM medium supplemented with 100 μg/mL ascorbic acid (DMEM/Vc), followed by a medium change with LasR basal medium at day 1, day 2, and day 3 and the addition of 50 ng/ml VEGF to the medium from day 2 to day 4. At day 4, medium was replaced by Stemline II medium (Sigma) supplemented with 10 μM SB431542. After 2 days, SB431542-containing medium was aspirated, and cells were maintained in Stemline II medium with 50 ng/mL SCF and FLT3L. At day 9 and day 12, the medium was aspirated and changed to Stemline II medium containing 50 ng/mL SCF and FLT3L and 25 ng/mL GM-CSF. At day 15, floating cells were gently harvested and used for terminal neutrophil differentiation. The floating cells were cultured in Stemline II medium supplemented with GlutaMAX 100X, ExCyte (0.2%), human G-CSF (150 ng/mL), and Am580 retinoic acid agonist (2.5 μM). After three days, the same medium with all components and cytokines was added to the top of the existing culture. […]"}, "[2]": {"system": "glioblastomas and other tumors", "settings": "cited from earlier work"}, "invertebrates": {"system": "invertebrates", "settings": "cited from earlier work"}, "mammals": {"system": "mammals", "settings": "cited from earlier work"}, "[3]": {"system": "day 15 myeloid progenitors", "assay": "Myeloid progenitor monocyte/macrophage potential by flow cytometry", "type": "cell-based, human", "settings": "compared to GM-CSF", "description": "(§1) Differentiated cells were gently pipetted and filtered through a 70 or 100 μm strainer sitting on a 50 mL tube. The cells were then pelleted by centrifugation and washed three times with PBS−/− solution containing 1% BSA. The cells were stained with appropriately conjugated antibodies for 25 min at room temperature in the dark and analyzed in an Accuri C6 plus cytometer (Beckton Dickinson) after washing with BSA-containing PBS−/− solution. Flow Jo software was used to process the collected flow data.\nas §1, with “Flow cytometry analysis. Differentiated” for “Differentiated”, “twice” for “three times”, “bovine serum albumin (BSA).” for “BSA.”, “appropriate” for “appropriately”, “dark,” for “the dark”, “FlowJo” for “Flow Jo”"}}, "note": "Entries after “also recorded” stand apart in the source; their conditions may differ.", "data": [{"molecule": "C=C1[C@@H](C)[C@H]2[C@H](Cc3ccccc3)NC(=O)[C@]23[C@H](OC(C)=O)/C=C/[C@@](C)(O)C(=O)[C@@H](C)C/C=C/[C@H]3[C@@H]1O", "note": "[cytochalasin D]", "values": [{"measurement": "effect on tumor cytotoxicity of CAR-neutrophils", "setting": "U87MG cells", "value": "significantly reduced"}, {"measurement": "effect on tumor-infiltrating activity of CAR-neutrophils", "setting": "U87MG cells", "value": "significantly reduced"}, {"measurement": "phagocytosis of tumor cells by neutrophils", "setting": "tumor cells", "value": "significantly reduced"}, {"measurement": "tumor lysis by CAR neutrophils", "setting": "glioblastoma", "value": "significantly blocked"}, {"measurement": "glioblastoma viability", "setting": "glioblastoma", "value": "higher viability"}]}, {"molecule": "CC(=O)N[C@@H](CS)C(=O)O", "note": "[N-acetylcysteine]", "values": [{"measurement": "tumor lysis by CAR neutrophils", "setting": "glioblastoma", "value": "significantly blocked"}, {"measurement": "glioblastoma viability", "setting": "glioblastoma", "value": "higher viability"}]}, {"molecule": "CC(C)c1cccc(C(C)C)c1O", "note": "[propofol]", "values": [{"measurement": "tumor lysis by CAR neutrophils", "setting": "glioblastoma", "value": "significantly blocked"}, {"measurement": "NET formation in neutrophils", "setting": "[1]", "value": "significant decrease"}]}, {"molecule": "NC(=O)c1ccc(-c2nc(-c3ccc4c(c3)OCO4)c(-c3ccccn3)[nH]2)cc1", "note": "[SB431542]", "values": [{"measurement": "endothelial-to-hematopoietic transition (generation of CD45+CD43+ HSPCs)", "setting": "TGFβ", "value": "promoted endothelial-to-hematopoietic transition; also recorded: promoted EHT process"}]}, {"molecule": "chlorotoxin [CLTX]", "values": [{"measurement": "tumor binding", "setting": "[2]", "value": "binds selectively"}, {"measurement": "toxicity to invertebrates", "setting": "invertebrates", "value": "highly toxic"}, {"measurement": "toxicity to mammals", "setting": "mammals", "value": "nontoxic"}]}, {"molecule": "soluble MMP2: soluble matrix metallopeptidase 2 used to pre-treat neutrophils (protein, UniProt P08253 110-660, looked up) 72 kDa type IV collagenase: YNFFPRKPKWDKNQITYRIIGYTPDLDPETVDDAFARAFQVWSDVTPLRFSRIHDGEADIMINFGRWEHGDGYPFDGKDGLLAHAFAPGTGVGGDSHFDDDELWTLGEGQVVRVKYGNADGEYCKFPFLFNGKEYNSCTDTGRSDGFLWCSTTYNFEKDGKYGFCPHEALFTMGGNAEGQPCKFPFRFQGTSYDSCTTEGRTDGYRWCGTTEDYDRDKKYGFCPETAMSTVGGNSEGAPCVFPFTFLGNKYESCTSAGRSDGKMWCATTANYDDDRKWGFCPDQGYSLFLVAAHEFGHAMGLEHSQDPGALMAPIYTYTKNFRLSQDDIKGIQELYGASPDIDLGTGPTPTLGPVTPEICKQDIVFDGIAQIRGEIFFFKDRFIWRTVTPRDKPMGPLLVATFWPELPEKIDAVYEAPQEEKAVFFAGNEYWIYSASTLERGYPKPLTSLGLPPDVQRVDAAFNWSKNKKTYIFAGDKFWRYNEVKKKMDPGFPKLIADAWNAIPDNLDAVVDLQGGGHSYFFKGAYYLKLENQSLKSVKFGSIKSDWLGC", "values": [{"measurement": "effect on tumor cytotoxicity of CAR-neutrophils", "setting": "U87MG cells", "value": "significantly reduced"}, {"measurement": "effect on tumor-infiltrating activity of CAR-neutrophils", "setting": "U87MG cells", "value": "significantly reduced"}]}, {"molecule": "G-CSF: recombinant human granulocyte colony-stimulating factor (protein, UniProt P09919 31-207, looked up) Granulocyte …: TPLGPASSLPQSFLLKCLEQVRKIQGDGAALQEKLVSECATYKLCHPEELVLLGHSLGIPWAPLSSCPSQALQLAGCLSQLHSGLFLYQGLLQALEGISPELGPTLDTLQLDVADFATTIWQQMEELGMAPALQPTQGAMPAFASAFQRRAGGVLVASHLQSFLEVSYRVLRHLAQP", "values": [{"measurement": "number of CD14+ monocytes/macrophages", "setting": "[3]", "value": "significantly decreased"}]}]}
